Test results reported in ChEMBL document CHEMBL1201862, “PubChem BioAssay data set” (2004).
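Five compound concentrations were applied to cells in 96-well plates for 48 hours; endpoints were derived by simple linear interpolation of the resulting dose-response curve. GI50 is the concentration that inhibits growth by half.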 Activity calls are given as the source filed them. No stated cut-off is given here; in the data, active = GI50 up to about 1.1 µM and inactive = higher.

Experiments:
Assay in all cases: NCI tumour cell line growth inhibition, 48 h
[1] = test system: MDA-MB-435
[2] = test system: MOLT-4
[3] = test system: COLO 205
[4] = test system: DU-145
[5] = test system: KM12
[6] = test system: SF-539
[7] = test system: OVCAR-4
[8] = test system: SNB-19
[9] = test system: MDA-N
[10] = test system: SK-OV-3
[11] = test system: NCI-H23
[12] = test system: MDA-MB-231
[13] = test system: 786-0
[14] = test system: RPMI-8226
[15] = test system: SK-MEL-28
[16] = test system: K562
[17] = test system: ACHN
[18] = test system: U-251
[19] = test system: OVCAR-8
[20] = test system: A498

SMILES | GI50 [1] | GI50 [2] | GI50 [3] | GI50 [4] | GI50 [5] | GI50 [6] | GI50 [7] | GI50 [8] | GI50 [9] | GI50 [10] | GI50 [11] | GI50 [12] | GI50 [13] | GI50 [14] | GI50 [15] | GI50 [16] | GI50 [17] | GI50 [18] | GI50 [19] | GI50 [20]
N#Cc1c(-c2ccc(F)cc2)c(-c2ccc(F)cc2)nn(CCO)c1=O | 0.0641 µM (active) | 0.242 µM (active) | 0.24 µM (active) | 0.743 µM (active) | 0.126 µM (active) | 0.198 µM (active) | 1.32 µM (inactive) | 4.9 µM (inactive) | 0.0492 µM (active) | 0.288 µM (active) | 0.948 µM (active) | 0.661 µM (active) | 0.421 µM (active) | 0.213 µM (active) | 17.8 µM (inactive) | 0.103 µM (active) | 0.413 µM (active) | 0.178 µM (active) | – | –
O=c1oc2ccccc2c(O)c1C1c2c(c3ccccc3oc2=O)Oc2c1c(=O)oc1ccccc21 | 28.7 µM (inactive) | 47.5 µM (inactive) | 42.3 µM (inactive) | 53.5 µM (inactive) | 26.4 µM (inactive) | – | 32.9 µM (inactive) | 48.5 µM (inactive) | 18.9 µM (inactive) | – | 31.3 µM (inactive) | 32.4 µM (inactive) | 43.1 µM (inactive) | 31.7 µM (inactive) | 30.8 µM (inactive) | 33.7 µM (inactive) | 28.4 µM (inactive) | 38.1 µM (inactive) | 32.1 µM (inactive) | 49.5 µM (inactive)
Sc1nnc(COc2ccc(Cl)cc2)n1-c1ccccc1 | > 100 µM (inactive) | 88.3 µM (inactive) | 88.1 µM (inactive) | > 100 µM (inactive) | > 100 µM (inactive) | > 100 µM (inactive) | > 100 µM (inactive) | > 100 µM (inactive) | > 100 µM (inactive) | > 100 µM (inactive) | > 100 µM (inactive) | > 100 µM (inactive) | > 100 µM (inactive) | – | > 100 µM (inactive) | 95.7 µM (inactive) | > 100 µM (inactive) | > 100 µM (inactive) | > 100 µM (inactive) | > 100 µM (inactive)
CSCCCNC(=O)[C@H](CSC)NC(=O)c1csc(CCNC(=O)[C@@H](NSc2ccccc2[N+](=O)[O-])C(C)O)n1 (stereo not given in full) | > 100 µM (inactive) | > 100 µM (inactive) | > 100 µM (inactive) | > 100 µM (inactive) | > 100 µM (inactive) | > 100 µM (inactive) | > 100 µM (inactive) | > 100 µM (inactive) | > 100 µM (inactive) | > 100 µM (inactive) | > 100 µM (inactive) | > 100 µM (inactive) | > 100 µM (inactive) | – | > 100 µM (inactive) | > 100 µM (inactive) | > 100 µM (inactive) | > 100 µM (inactive) | > 100 µM (inactive) | > 100 µM (inactive)
C=C1c2c(n(S(=O)(=O)c3ccccc3)c3ccccc23)[C@@]2(C(=O)OC)CC3C=CC2N1C3 | > 100 µM (inactive) | > 100 µM (inactive) | > 100 µM (inactive) | > 100 µM (inactive) | > 100 µM (inactive) | > 100 µM (inactive) | > 100 µM (inactive) | > 100 µM (inactive) | > 100 µM (inactive) | > 100 µM (inactive) | > 100 µM (inactive) | > 100 µM (inactive) | > 100 µM (inactive) | 41.3 µM (inactive) | > 100 µM (inactive) | > 100 µM (inactive) | > 100 µM (inactive) | > 100 µM (inactive) | > 100 µM (inactive) | –
Cc1cc(Cl)nc(Nc2nc3ccccc3[nH]2)n1 | > 100 µM (inactive) | – | > 100 µM (inactive) | > 100 µM (inactive) | – | > 100 µM (inactive) | > 100 µM (inactive) | > 100 µM (inactive) | > 100 µM (inactive) | > 100 µM (inactive) | > 100 µM (inactive) | > 100 µM (inactive) | > 100 µM (inactive) | – | > 100 µM (inactive) | > 100 µM (inactive) | > 100 µM (inactive) | > 100 µM (inactive) | > 100 µM (inactive) | > 100 µM (inactive)
COc1cc2ccnc3c2c(c1OC)N(C)C=C3 | 31.5 µM (inactive) | 30 µM (inactive) | 20.5 µM (inactive) | 34.5 µM (inactive) | 25.9 µM (inactive) | – | 24.5 µM (inactive) | 25.2 µM (inactive) | 19.1 µM (inactive) | 16.5 µM (inactive) | 19.4 µM (inactive) | 29.1 µM (inactive) | 17.2 µM (inactive) | 24.4 µM (inactive) | 32.7 µM (inactive) | 21.1 µM (inactive) | 16.1 µM (inactive) | 35.2 µM (inactive) | 26.5 µM (inactive) | 36.1 µM (inactive)
CCCCC1(NN=C2CCCCC2)C(=O)N(c2ccccc2)N(c2ccccc2)C1=O | > 100 µM (inactive) | 26.2 µM (inactive) | > 100 µM (inactive) | > 100 µM (inactive) | > 100 µM (inactive) | > 100 µM (inactive) | > 100 µM (inactive) | > 100 µM (inactive) | > 100 µM (inactive) | > 100 µM (inactive) | > 100 µM (inactive) | > 100 µM (inactive) | > 100 µM (inactive) | 62.1 µM (inactive) | > 100 µM (inactive) | 30 µM (inactive) | > 100 µM (inactive) | > 100 µM (inactive) | > 100 µM (inactive) | –
O=C1Nc2ccccc2/C1=N/NC(=S)Nc1cccc(Cl)c1 | 17.7 µM (inactive) | 0.614 µM (active) | 8.93 µM (inactive) | 22.5 µM (inactive) | 7.26 µM (inactive) | 7 µM (inactive) | 4.33 µM (inactive) | 16.6 µM (inactive) | 27.9 µM (inactive) | 20.7 µM (inactive) | 6.97 µM (inactive) | 11.1 µM (inactive) | 5.12 µM (inactive) | – | 35.2 µM (inactive) | 4.7 µM (inactive) | 6.34 µM (inactive) | 10.8 µM (inactive) | 5.04 µM (inactive) | 4.03 µM (inactive)
NNC(=O)C(O)C(O)C(=O)NN (stereo not given) | > 100 µM (inactive) | 64.3 µM (inactive) | > 100 µM (inactive) | > 100 µM (inactive) | > 100 µM (inactive) | – | > 100 µM (inactive) | > 100 µM (inactive) | > 100 µM (inactive) | > 100 µM (inactive) | > 100 µM (inactive) | > 100 µM (inactive) | 98.4 µM (inactive) | > 100 µM (inactive) | > 100 µM (inactive) | 36.1 µM (inactive) | > 100 µM (inactive) | > 100 µM (inactive) | > 100 µM (inactive) | > 100 µM (inactive)
CC(C)C(=O)NCC[C@@H](CNC(=O)OC(C)(C)C)NC(=O)OC(C)(C)C | > 100 µM (inactive) | > 100 µM (inactive) | > 100 µM (inactive) | > 100 µM (inactive) | > 100 µM (inactive) | > 100 µM (inactive) | > 100 µM (inactive) | > 100 µM (inactive) | > 100 µM (inactive) | > 100 µM (inactive) | > 100 µM (inactive) | > 100 µM (inactive) | > 100 µM (inactive) | – | > 100 µM (inactive) | > 100 µM (inactive) | > 100 µM (inactive) | > 100 µM (inactive) | > 100 µM (inactive) | > 100 µM (inactive)
CC(=O)Nc1c(C)cc(OCC(=O)O)cc1C | > 100 µM (inactive) | – | > 100 µM (inactive) | > 100 µM (inactive) | > 100 µM (inactive) | – | > 100 µM (inactive) | > 100 µM (inactive) | > 100 µM (inactive) | > 100 µM (inactive) | > 100 µM (inactive) | > 100 µM (inactive) | > 100 µM (inactive) | > 100 µM (inactive) | > 100 µM (inactive) | > 100 µM (inactive) | > 100 µM (inactive) | > 100 µM (inactive) | > 100 µM (inactive) | > 100 µM (inactive)
Cc1cccc(NC(=O)/C=C/c2ccc([N+](=O)[O-])cc2)c1 | > 36.6 µM (inactive) | > 36.4 µM (inactive) | > 41.1 µM (inactive) | > 38.7 µM (inactive) | > 33.3 µM (inactive) | > 29.8 µM (inactive) | > 41.4 µM (inactive) | > 33.2 µM (inactive) | > 30.7 µM (inactive) | > 46.5 µM (inactive) | 16.4 µM (inactive) | 22.4 µM (inactive) | > 34.6 µM (inactive) | – | > 42 µM (inactive) | > 29.4 µM (inactive) | 14.9 µM (inactive) | > 38 µM (inactive) | > 37.2 µM (inactive) | > 100 µM (inactive)
CCN(CC)C(=O)Cn1c(-c2ccccc2)cc2ccccc21 | 34.1 µM (inactive) | 14.5 µM (inactive) | 16.6 µM (inactive) | 56 µM (inactive) | 38.3 µM (inactive) | 34.4 µM (inactive) | 66.8 µM (inactive) | 42.8 µM (inactive) | 28.1 µM (inactive) | 40.8 µM (inactive) | 44.4 µM (inactive) | 37.5 µM (inactive) | 45.1 µM (inactive) | > 10 µM (inactive) | 52.6 µM (inactive) | 25.8 µM (inactive) | 30.9 µM (inactive) | 40.1 µM (inactive) | 35.9 µM (inactive) | –
CC1=CC(=O)/C(=C/n2c(=S)[nH]c3ccc([N+](=O)[O-])cc32)C(=O)O1 | > 100 µM (inactive) | > 100 µM (inactive) | > 100 µM (inactive) | > 100 µM (inactive) | > 100 µM (inactive) | > 100 µM (inactive) | > 100 µM (inactive) | > 100 µM (inactive) | > 100 µM (inactive) | > 100 µM (inactive) | > 100 µM (inactive) | > 100 µM (inactive) | > 100 µM (inactive) | > 100 µM (inactive) | > 100 µM (inactive) | > 100 µM (inactive) | > 100 µM (inactive) | > 100 µM (inactive) | > 100 µM (inactive) | –
